Tests used:
[1] = test system: CHLA-90 neuroblastoma cells; experiment: DIMSCAN cytotoxicity assay, CHLA-90; format: cell-based; conditions: HPR 3-10 μM, BOC-d-fmk 40 μM, +24 hours, P=0.002 at 3 μM, P<0.001 at >3 μM
Protocol: Cytotoxicity is determined using the DIMSCAN assay system (R. Proffitt et al., Cytometry 24, 204-213 (1996); T. Frgala et al., Proc. AACR, 36, 303 (1995). The system employs digital imaging microscopy to quantify viable cells, which selectively accumulate fluorescein diacetate to become brightly fluorescent. The system is capable of measuring cytotoxicity over a 4-5 log dynamic range by quenching the residual fluorescence of dead and dying cells with eosin Y and quantifying the total fluorescence of viable cells using digital thresholding. Measured fluorescence is directly proportionate to the number of viable cells. A comparison of the total fluorescence of a drug-treated cell population to the fluorescence of a similar number of untreated cells yields a survival fraction. In brief, 5000 to 10,000 SK-N-RA neuroblastoma cells/well are replicate plated into 60 wells of a 96-well tissue culture plate in 0.1 cc media and allowed to attach overnight. Drug(s) are then added in 0.05 cc media to the final concentrations indicated. There are 12 wells treated per drug concentration. Twelve wells receive drug-vector only to the appropriate final concentration and serve as controls for the plate. Cells are incubated for 96-120 hours at 37° C. in 5% CO2. Fluorescein diacetate is then added to each well in 0.05 cc media to a final concentration of 8 microgram/cc. Cells are incubated for a further 15 minutes at 37° C. and 0.03 cc of 0.5% eosin Y is added to each well. Total fluorescence of viable cells is then measured by digital imaging microscopy.
Methods. Cells were added in 100 μL whole medium per well to 96-well microplates for DIMSCAN cytotoxicity assay as previously described. Cell lines used were the neuroblastoma cell lines CHLA-90 and LAN-6. At Time=0, either all-trans-retinoic acid (ATRA), 13-cis-retinoic acid (13-cis-RA) or a combination of retinoid plus safingol at a 3:1 molar ratio were added in 50 μL whole medium. Plates were incubated and assayed for cytotoxicity by DIMSCAN assay at +120 for CHLA-90 cells and+144 hours for LAN-6 cells.
Methods. To determine the manner in which 4-HPR or HPR+safingol induced cell death in neuroblastoma cells, morphological evidence of apoptosis and/or necrosis was assessed in CHLA-90 cells in the presence or absence of a specific as inhibitor of apoptosis, the neural cell-penetrant, pan-caspase enzyme inhibitor, BOC-d-fink (Enzyme Systems Products, Livermore, Calif.). […] CHLA-90 cells were plated in duplicate in whole medium in Lab Tek chamber slides (Nunc, Naperville, Ill.), allowed to attach for 24 hours, and then treated in the presence or absence of BOC-d-fink (40 μM) for one hour prior to treatment with HPR (10 μM). Control cells were treated with vehicle solvents of 0. 1% ethanol (4-HPR) and/or 0.2% DMSO (BOC-d-fink). Morphological features of apoptosis (DNA condensation and/or apoptotic bodies) were visualized in undetached cells at +24 or +48 hours using blue nuclear fluorescence induced by the supravital DNA stain Hoechst 33342 (10 μg/ml for 30 mins at 37° C.), while necrotic cells and advanced apoptotic cells were recognized by red fluorescent staining with propidium iodide (0.5 μM/ml). Red fluorescently-staining cells with condensed nuclear remnants were scored as apoptotic cells. For cells assayed at +48 hours, additional BOC-d-fink (40 μM) or appropriate control vehicle was added at +24 hours. Cells were observed using filters appropriate for each dye sequentially on an Olympus Vanox epifluorescence microscope. Mutiple random fields of cells (of ˜100-500 cells each) were counted and photographed for viable cells, apoptotic cells, and necrotic cells. To further examine cells treated with HPR, cytotoxicity assays were performed on CHLA-90 cells pretreated with or without 40 μM BOC-d-fmk for one hour prior to the addition of 4-HPR (3-10 μM) and assayed at +24 hours by DIMSCAN assay to assess the effect of caspase inhibition on viability. […]

[2] = test system: CHLA-90 neuroblastoma cell line; experiment: Ceramide assay, CHLA-90; format: cell-based, human; conditions: CHLA-90 (drug resistant); 10 μM fenretinide; 20% O2
Protocol: The ceramide assay is carried out as follows. 500,000 neuroblastoma cells/well are replicate plated in six-well tissue culture plates and allowed to attach overnight. Tritiated (3H)-palmitic acid (a lipid precursor) is added to 1 microcure/cc and fenretinide added to a final concentration of 10 uM. Control cells receive tritiated label but no drug. At the indicated time, cells are harvested from triplicate wells, washed, and lipids extracted with methanol, acetic acid, water, and chloroform. The organic layer (containing the tritium label incorporated into lipids) is isolated and dried down by a nitrogen stream. The lipid sample is dissolved in chloroform: methanol and 10% of each sample assayed to estimate the total tritium in the lipid sample. The lipids in sample fractions, together with unlabeled ceramide standards, are then separated by thin layer chromatography and the plates developed by iodine vapor. The region of the plate corresponding to the ceramide standard is scraped and the tritium of the co-migrating sample ceramide is measured. Total sample ceramide is then expressed as percent tritium label in ceramide versus tritium in total lipid. […]

[3] = test system: MCF7/GCS cells; experiment: DIMSCAN cytotoxicity assay, MCF7/GCS tet OFF vs tet ON; format: cell-based, human; conditions: 96 hours, P<0.005 at >6 μM HPR, safingol 0-4 μM
Description: We have shown that HPR generates ceramide in neuroblastoma tumor cell lines in a dose- and time-depenent manner (B. Maurer et al., J. Natl. Cancer Inst. (1999)(in press)). Glucosylceramide (GC) is a nontoxic metabolite of ceramide. Ceramide is converted into glucosylceramide by the action of glucosylceramide synthase (GCS). Glucosylceramide synthase (GCS) has been transfected into human MCF7 breast cancer cells in a tetracycline-inducible expression construct in the MCF7/GCS cell line (Y. Liu et al., J. Biol. Chem. 274:1140-46 (1999)). […] We have exposed MCF7/GCS cells to HPR, safingol and HPR+safingol in the absence, and in the presence, of doxycycline.
Methods. MCF7/GCS cells were plated and incubated in RPMI medium with 10% fetal bovine serum and 200 microgram/ml Hygromycin B (tet OFF) for DIMSCAN cytotoxicity assays as previously described. To increase GCS expression, MCF7/GCS cells were also incubated in the above medium with 3 microgram/ml doxycycline (tet ON) for three days prior to replating them for DIMSCAN cytotoxicity assay. DIMSCAN assays with doxycycline-induced (tet ON) cells also included 3 microgram/ml doxycycline in the medium. Both “tet OFF” and “tet ON” MCF7/GCS cells were exposed to HPR, safingol and HPR+safingol (3:1 molar ratio) for 96 hours and assayed for survival fraction by DIMSCAN as previously described.

## CC1=C(/C=C/C(C)=C/C=C/C(C)=C/C(=O)Nc2ccc(O)cc2)C(C)(C)CCC1 [HPR, all-trans-N-(4-hydroxyphenyl)retinamide]
[1]
  cytotoxicity in the presence of BOC-d-fmk: significant cytotoxicity
[2]
  ceramide generation: generate ceramide
[3]
  change of cytotoxicity in tet ON (doxycycline, GCS induced) compared to tet OFF cells: significantly decreased

Source: patent publication US6368831B1, “Treatment of hyperproliferative disorders” (Childrens Hospital Los Angeles, priority 1998, dated 2002)
